According to US11208386B2, “Inhibitors of protein arginine deiminases (PADs) and methods of preparation and use thereof” (University of Massachusetts, priority 2016, dated 2021):

Columns and labels:
Format in all cases: biochemical
PAD1 = molecular target: T1, PAD1 (Homo sapiens, UniProt Q9ULC6); assay: Inactivation kinetics, PAD1; conditions: for kinact/KI: a: single kobs determined, b: from a linear fit; for Fold PAD1 Selectivity: kinact/KI relative to least inhibited isozyme (1.0)
T1 construct: made in house
T1 sequence (Q9ULC6 1-663): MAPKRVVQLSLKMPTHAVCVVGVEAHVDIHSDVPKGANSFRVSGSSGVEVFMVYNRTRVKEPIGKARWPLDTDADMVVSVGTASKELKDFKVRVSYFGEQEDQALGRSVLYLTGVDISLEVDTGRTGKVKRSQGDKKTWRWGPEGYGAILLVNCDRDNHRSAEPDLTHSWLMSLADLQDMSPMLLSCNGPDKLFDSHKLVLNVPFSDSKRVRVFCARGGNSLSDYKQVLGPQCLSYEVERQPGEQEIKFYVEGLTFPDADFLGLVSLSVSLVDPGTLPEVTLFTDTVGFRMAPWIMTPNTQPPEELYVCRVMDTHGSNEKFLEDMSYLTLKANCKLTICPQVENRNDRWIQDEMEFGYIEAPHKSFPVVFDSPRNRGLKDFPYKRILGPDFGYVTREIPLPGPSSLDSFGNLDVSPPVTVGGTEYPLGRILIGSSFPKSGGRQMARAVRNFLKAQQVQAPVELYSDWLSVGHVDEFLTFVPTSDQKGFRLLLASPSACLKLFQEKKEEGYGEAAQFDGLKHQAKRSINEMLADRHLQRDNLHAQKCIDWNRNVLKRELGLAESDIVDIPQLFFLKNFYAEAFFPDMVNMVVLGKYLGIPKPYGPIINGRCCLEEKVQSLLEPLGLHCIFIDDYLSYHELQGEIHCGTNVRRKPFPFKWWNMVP
Protocol: (§1) Inactivation kinetic parameters were determined by incubating PAD1, 2, or 4 (2.0 μM) or PAD3 (5.0 μM) in a pre-warmed (10 min; 37° C.) inactivation mixture (50 mM HEPES, 10 mM CaCl2, and 2 mM DTT, pH 7.6, with a final volume of 60 μL) containing various concentrations of inhibitor. Aliquots were removed at various time points and added to a pre-warmed (10 min, 37° C.) reaction mixture (50 mM HEPES, 50 mM NaCl, 10 mM CaC2, 2 mM DTT, and 10 mM BAEE or 10 mM BAA in the case of PAD3; pH 7.6). After 15 min, reactions were quenched in liquid nitrogen and citrulline production quantified using the COLDER assay. […] In Vitro Labeling of PADs with “Clickable” Probes BB-F-Yne (5u), BB-Cl-Yne (5v) and BIFYne (5w)

PAD2 = molecular target: T2, PAD2 (Homo sapiens, UniProt Q9Y2J8); assay: Inactivation kinetics, PAD2; conditions: for kinact/KI: a: single kobs determined, b: from a linear fit, other footnotes: from kinact and KI; for Fold PAD2 Selectivity: kinact/KI relative to least inhibited isozyme (1.0)
T2 construct: made in house
T2 sequence (Q9Y2J8 whole entry): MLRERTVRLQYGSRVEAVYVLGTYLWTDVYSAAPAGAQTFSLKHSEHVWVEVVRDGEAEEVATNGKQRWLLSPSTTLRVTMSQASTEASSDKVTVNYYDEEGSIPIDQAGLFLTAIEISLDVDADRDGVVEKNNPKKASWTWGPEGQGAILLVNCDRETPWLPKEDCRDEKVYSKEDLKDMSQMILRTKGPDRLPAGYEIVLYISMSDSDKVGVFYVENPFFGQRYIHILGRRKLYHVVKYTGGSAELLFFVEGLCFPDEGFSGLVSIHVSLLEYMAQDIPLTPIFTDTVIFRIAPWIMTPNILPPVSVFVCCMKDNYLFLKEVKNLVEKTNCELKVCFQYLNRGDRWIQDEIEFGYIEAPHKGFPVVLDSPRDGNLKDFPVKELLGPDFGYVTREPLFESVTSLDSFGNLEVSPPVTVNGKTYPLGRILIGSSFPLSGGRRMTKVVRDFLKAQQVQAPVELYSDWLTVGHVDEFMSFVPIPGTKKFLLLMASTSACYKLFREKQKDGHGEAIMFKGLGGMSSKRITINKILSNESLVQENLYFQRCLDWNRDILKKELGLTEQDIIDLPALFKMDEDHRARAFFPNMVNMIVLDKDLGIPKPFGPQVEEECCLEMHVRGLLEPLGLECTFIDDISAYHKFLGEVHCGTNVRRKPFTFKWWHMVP
Protocol: as §1

PAD3 = molecular target: T3, PAD3 (Homo sapiens, UniProt Q9ULW8); assay: Inactivation kinetics, PAD3; conditions: for kinact/KI: a: single kobs determined; for Fold PAD3 Selectivity: kinact/KI relative to least inhibited isozyme (1.0)
T3 construct: made in house
T3 sequence (Q9ULW8 1-664): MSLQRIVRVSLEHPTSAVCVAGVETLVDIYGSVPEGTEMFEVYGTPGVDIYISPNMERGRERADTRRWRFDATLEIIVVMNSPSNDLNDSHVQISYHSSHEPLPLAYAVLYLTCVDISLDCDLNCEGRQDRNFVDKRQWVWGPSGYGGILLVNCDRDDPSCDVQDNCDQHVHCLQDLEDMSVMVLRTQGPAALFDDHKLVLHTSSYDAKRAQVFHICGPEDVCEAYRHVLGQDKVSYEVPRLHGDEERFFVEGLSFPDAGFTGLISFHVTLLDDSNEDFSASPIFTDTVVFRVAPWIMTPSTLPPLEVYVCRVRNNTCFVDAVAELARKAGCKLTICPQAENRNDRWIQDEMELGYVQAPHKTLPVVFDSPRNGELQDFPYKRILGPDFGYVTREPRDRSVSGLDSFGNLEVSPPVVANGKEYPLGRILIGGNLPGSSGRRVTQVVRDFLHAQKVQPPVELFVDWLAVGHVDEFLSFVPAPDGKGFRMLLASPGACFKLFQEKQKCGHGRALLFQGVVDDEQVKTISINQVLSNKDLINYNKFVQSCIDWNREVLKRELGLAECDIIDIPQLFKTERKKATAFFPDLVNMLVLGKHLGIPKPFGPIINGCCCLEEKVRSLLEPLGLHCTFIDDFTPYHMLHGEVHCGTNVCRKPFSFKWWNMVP
Protocol: as §1

PAD4 = molecular target: T4, PAD4 (Homo sapiens, UniProt Q9UM07); assay: Inactivation kinetics, PAD4; conditions: for kinact/KI: a: single kobs determined, b: from a linear fit; for Fold PAD4 Selectivity: kinact/KI relative to least inhibited isozyme (1.0)
T4 construct: made in house
T4 sequence (Q9UM07 whole entry): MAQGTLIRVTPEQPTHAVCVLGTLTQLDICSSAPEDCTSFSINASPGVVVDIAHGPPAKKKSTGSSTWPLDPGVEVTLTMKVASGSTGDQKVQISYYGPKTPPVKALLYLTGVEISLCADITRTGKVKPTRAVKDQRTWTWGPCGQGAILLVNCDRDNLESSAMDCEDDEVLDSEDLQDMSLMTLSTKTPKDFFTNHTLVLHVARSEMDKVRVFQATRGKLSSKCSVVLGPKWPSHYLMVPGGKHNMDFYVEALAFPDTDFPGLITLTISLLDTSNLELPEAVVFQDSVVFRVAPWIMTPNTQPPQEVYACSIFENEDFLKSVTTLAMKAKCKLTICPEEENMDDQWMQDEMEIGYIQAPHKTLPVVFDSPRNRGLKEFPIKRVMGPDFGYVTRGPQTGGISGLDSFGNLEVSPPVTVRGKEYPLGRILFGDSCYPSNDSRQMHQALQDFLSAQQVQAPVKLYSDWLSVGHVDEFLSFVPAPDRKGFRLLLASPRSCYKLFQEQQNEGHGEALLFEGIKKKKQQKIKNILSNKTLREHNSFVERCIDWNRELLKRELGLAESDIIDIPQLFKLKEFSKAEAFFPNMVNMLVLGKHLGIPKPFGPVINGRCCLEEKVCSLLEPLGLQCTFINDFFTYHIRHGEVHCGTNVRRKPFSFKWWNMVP
Protocol: as §1

kinact/KI (PAD1)	Fold PAD1 Selectivity (PAD1)	kinact/KI (PAD2)	Fold PAD2 Selectivity (PAD2)	kinact/KI (PAD3)	Fold PAD3 Selectivity (PAD3)	kinact/KI (PAD4)	Fold PAD4 Selectivity (PAD4)	Compound
12.7 M⁻¹ s⁻¹	25 fold	19.3 M⁻¹ s⁻¹	39 fold	30 M⁻¹ s⁻¹	60 fold	0.5 M⁻¹ s⁻¹	1.0 fold	CCn1c([C@H](CCCNC(=N)CF)NC(=O)c2ccc(-c3ccccc3)cc2)nc2ccccc21 [Compound 5i, N1-[1,4′-Phenyl]benzoyl-N5-(2-fluoro-1-iminoethyl)-1-(1-ethyl-benzo[d]imidazol-2-yl)-L-omithine]
84.3 M⁻¹ s⁻¹	1.2 fold	80.8 M⁻¹ s⁻¹	1.2 fold	284 M⁻¹ s⁻¹	4.1 fold	69.2 M⁻¹ s⁻¹	1.0 fold	CCn1c([C@H](CCCNC(=N)CCl)NC(=O)c2ccc(-c3ccccc3)cc2)nc2ccccc21 [Compound 5j, N1-[1,4′-Phenyl]benzoyl-N5-(2-chloro-1-iminoethyl)-1-(1-ethyl-benzo[d]imidazol-2-yl)-L-ornithine]
0.333 M⁻¹ s⁻¹	1.0 fold	11.3 M⁻¹ s⁻¹	34 fold	28.3 M⁻¹ s⁻¹	85 fold	0.333 M⁻¹ s⁻¹	1.0 fold	CC(C)n1c([C@H](CCCNC(=N)CF)NC(=O)c2ccc(-c3ccccc3)cc2)nc2ccccc21 [Compound 5k, N1-[1,4′-Phenyl]benzoyl-N5-(2-fluoro-1-iminoethyl)-1-(1-isopropyl-benzo[d]imidazol-2-yl)-L-ornithine]
20.3 M⁻¹ s⁻¹	1.3 fold	24.8 M⁻¹ s⁻¹	1.6 fold	192 M⁻¹ s⁻¹	12 fold	15.8 M⁻¹ s⁻¹	1.0 fold	CC(C)n1c([C@H](CCCNC(=N)CCl)NC(=O)c2ccc(-c3ccccc3)cc2)nc2ccccc21 [Compound 5l, N1-[1,4′-Phenyl]benzoyl-N5-(2-chloro-1-iminoethyl)-1-(1-isopropyl-benzo[d]imidazol-2-yl)-L-ornithine]
31.2 M⁻¹ s⁻¹	2.4 fold	132 M⁻¹ s⁻¹	10 fold	48.3 M⁻¹ s⁻¹	3.7 fold	13.2 M⁻¹ s⁻¹	1.0 fold	COc1cccc2c1nc([C@H](CCCNC(=N)CF)NC(=O)c1ccc(-c3ccccc3)cc1)n2C [Compound 5m, N1-[1,4′-Phenyl]benzoyl-N5-(2-fluoro-1-iminoethyl)-1-(4-methoxy-1-methyl-benzo[d]imidazol-2-yl)-L-omithine]
580 M⁻¹ s⁻¹	6.3 fold	463 M⁻¹ s⁻¹	5.1 fold	91.7 M⁻¹ s⁻¹	1.0 fold	132 M⁻¹ s⁻¹	1.4 fold	COc1cccc2c1nc([C@H](CCCNC(=N)CCl)NC(=O)c1ccc(-c3ccccc3)cc1)n2C [Compound 5n, N1-[1,4′-Phenyl]benzoyl-N5-(2-chloro-1-iminoethyl)-1-(4-methoxy-1-methyl-benzo[d]imidazol-2-yl)-L-ornithine]
23.3 M⁻¹ s⁻¹	1.0 fold	28.3 M⁻¹ s⁻¹	1.2 fold	27 M⁻¹ s⁻¹	1.2 fold	53.3 M⁻¹ s⁻¹	2.3 fold	N=C(CF)NCCC[C@H](NC(=O)c1ccc(-c2ccc(F)cc2)cc1)c1nc2ccccc2[nH]1 [Compound 5o]
343 M⁻¹ s⁻¹	3.7 fold	91.7 M⁻¹ s⁻¹	1.0 fold	176 M⁻¹ s⁻¹	1.9 fold	280 M⁻¹ s⁻¹	3.1 fold	N=C(CCl)NCCC[C@H](NC(=O)c1ccc(-c2ccc(F)cc2)cc1)c1nc2ccccc2[nH]1 [Compound 5p, N1-4′-F-[1,1′-Phenyl]benzol-N5-(2-chloro-1-iminoethyl)-1-(1H-benzo[d]imidazol-2-yl)-L-ornithine]
